# Test results reported in PubChem BioAssay AID365 (MTDP, 2006).
# The source made the active and inactive calls. The rule behind the calls is not given here.
# Target: Ribonuclease HI (Escherichia coli (strain K12)) (UniProt P0A7Y4)
# Assay: inhibition of bacterial ribonuclease H activity – biochemical, FRET RNA/DNA duplex cleavage, dose response (AID 365)
# Conditions: E. coli RNase H, FRET RNA/DNA cleavage fluorescence
# Sequence of Ribonuclease HI (Escherichia coli (strain K12)) (P0A7Y4 whole entry, looked up): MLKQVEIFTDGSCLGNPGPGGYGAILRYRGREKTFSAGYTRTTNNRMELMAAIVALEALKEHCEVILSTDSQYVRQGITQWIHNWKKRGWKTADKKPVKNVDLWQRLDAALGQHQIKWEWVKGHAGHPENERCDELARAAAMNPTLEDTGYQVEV
row,Compound,IC50
1,O=C(NC(=S)Nc1cc(-c2nc3ccccc3s2)ccc1Cl)c1ccc(F)cc1,6 µM
2,C=C(CCC(C(=O)O)C1CCC2(C)C3=C(CCC12C)C1(C)CCC(O)C(C)(C)C1CC3)C(C)C (configuration not stated),9 µM
3,COc1ccc(-c2c(C#N)c(N)nc(SCC(=O)c3ccc(O)c(O)c3)c2C#N)cc1,0.6 µM
4,O=[N+]([O-])c1cc(Cc2cc([N+](=O)[O-])c3cccnc3c2O)c(O)c2ncccc12,inactive
5,O=c1oc2ccccc2c(O)c1/C=C1\C=Nc2ccccc21,inactive
6,O=c1c(O)c(-c2cc(O)c(O)c(O)c2)oc2cc(O)cc(O)c12,inactive
7,COc1ccc(N2C(=O)/C(=C/c3ccc(I)o3)C(=O)NC2=S)cc1,3 µM
8,O=C(O)C1Nc2c(Cl)cc(Cl)cc2C2C=CCC12 (configuration not stated),inactive
9,Cc1ccc(S(=O)(=O)N=C2C=C(Cl)C(=O)C(Br)=C2)cc1,inactive
10,Cc1ccc(C)n1-c1ccc(Br)cc1C(=O)O,inactive
11,Cc1ccc(C)n1-c1ccc(SCC(=O)O)cc1,> 100 µM (inactive)
12,O=C1C=CC(=NS(=O)(=O)c2ccc(Cl)c([N+](=O)[O-])c2)C=C1,7 µM
13,C[C@@H]1[C@H](O)c2c(c3c(c4c(-c5ccccc5)cc(=O)oc24)OC(C)(C)C=C3)O[C@@H]1C,8 µM
14,O=C(Nc1sc2c(c1C(=O)Nc1cccc3ccccc13)CCCCC2)c1ccccc1F,5 µM
15,Cc1ccc(NC(=O)c2c(NC(=O)c3ccccc3F)sc3c2CCCCC3)cc1,0.6 µM
16,CCOc1ccc(C2=CC(=O)C=CC2=O)cc1,inactive
17,O=C(CSc1nc2ccccc2s1)c1sc2sc3ccccc3[n+]2c1[O-],0.6 µM
18,O=C1c2cc([N+](=O)[O-])ccc2-c2ccc3c4ccc5c6c(ccc(c7ccc1c2c73)c64)C(=O)c1cc([N+](=O)[O-])ccc1-5,1.8 µM
19,O=C(O)C1CCCCC1c1c2ccc(=O)c(O)c-2oc2c(O)c(O)ccc12 (configuration not stated),2 µM
20,Cc1cccc(NCC(=O)N/N=C\c2c(Br)cc(Br)c(O)c2Br)c1,inactive
21,Cc1nn(CC(=O)Nc2sc(C)c(C)c2C(N)=O)c(C)c1[N+](=O)[O-],8.2 µM
22,Cc1c(Cl)ccc2c1NC(C(=O)O)C1CC=CC21 (configuration not stated),6.8 µM
23,CC(C)c1ccc(O)c(O)c(=O)c1,inactive
24,Nc1cc(S(N)(=O)=O)ccc1SSc1ccc(S(N)(=O)=O)cc1N,> 100 µM (inactive)
25,CCOc1ccc(NC(=O)c2c(NC(=O)c3ccccc3)sc3c2CCCCC3)cc1,0.33 µM

row,Compound,IC50
1,Cc1onc(-c2ccccc2)c1C(=O)Nc1sc(C)c(C)c1C(N)=O,inactive
2,CC1=c2c(oc3cc(O)c(Nc4c(C)cc(O)cc4O)c(C)c23)=CC(=O)C1=Nc1c(C)cc(O)cc1O,5.2 µM
3,N#Cc1c(N)nc(SCC(=O)c2ccc(O)c(O)c2)c(C#N)c1-c1ccc(O)cc1,1.7 µM
4,O=[N+]([O-])c1c(Cl)cccc1-c1c[nH]cc1Cl,> 100 µM (inactive)
5,O=C(O)c1cc(-c2ccc(/C=C3/Sc4ccccc4C3=O)o2)ccc1O,1 µM
6,N#C/C(=C\Nc1ccc(S(=O)(=O)Nc2nccs2)cc1)c1nc(-c2ccc(Cl)cc2)cs1,1.2 µM
7,O=C1c2ccccc2C(=O)c2c(NC3CCCCC3)ccc(Nc3ccc(S(=O)(=O)O)cc3)c21,inactive
8,O=C1C(Cl)=CC(=NS(=O)(=O)c2ccccc2)C=C1Cl,inactive
9,COc1ccc(N2C(=O)/C(=C\c3cn(CC(=O)Nc4ccccc4)c4ccccc34)C(=O)NC2=S)cc1,2.2 µM
10,Cc1ccc(-c2n[nH]c(=S)n2/N=C/c2ccc(O)c(O)c2O)cc1,inactive
11,Cc1cc(I)c2c(c1)C1C=CCC1C(C(=O)O)N2 (configuration not stated),inactive
12,O=C1NC(=S)N(c2ccc(Cl)cc2)C(=O)/C1=C\C=C\c1ccccc1[N+](=O)[O-],8.8 µM
13,COc1ccc2oc(=O)c(-c3csc(Nc4ccc(Br)cc4)n3)cc2c1,2.8 µM
14,Cc1cccc(NC(=O)c2c(NC(=O)c3ccc([N+](=O)[O-])cc3)sc3c2CCCC3)c1,0.28 µM
15,CC(C)=CCC[C@]1(C)[C@@H](CC=C(C)C)C[C@@]2(CC=C(C)C)C(=O)/C(=C(\O)c3ccc(O)c(O)c3)C(=O)[C@]1(CC=C(C)C)C2=O,2.1 µM
16,O=C1C(Cl)=C(Nc2ccc(S(=O)(=O)Nc3ccccn3)cc2)C(=O)c2ccccc21,80 µM
17,CC1=C(CCC(=O)O)c2cc3nc(cc4[nH]c(cc5[nH]c(cc1n2)c(C)c5C(C)O)c(C)c4C(C)O)C(C)=C3CCC(=O)O (configuration not stated),> 100 µM (inactive)
18,O=S(=O)(O)c1cc(N=[N+]([O-])c2cc(S(=O)(=O)O)c3ccccc3c2)cc2ccccc12,0.7 µM
19,CCOc1ccc(C(=O)Nc2ccc3c(c2)C(=O)c2ccccc2C3=O)cc1,4 µM
20,NC(=O)c1c(N)sc2c1CCCCC2,> 100 µM (inactive)
21,O=C(Oc1ccccc1)Oc1c(Cl)cc2oc(=O)sc2c1Cl,7.8 µM
22,O=C1c2ccccc2C(=O)N1c1ccc(-c2nc3ccc(N4C(=O)c5ccccc5C4=O)cc3[nH]2)cc1,5 µM
23,CCOc1ccc(N2C(=O)/C(=C/c3ccc(Br)o3)C(=O)NC2=S)cc1,0.8 µM
24,COC([CH2][Hg][n]1cnc2c1c(=O)n(C)c(=O)n2C)CN1C(=O)c2ccccc2S1(=O)=O (configuration not stated),inactive
25,N#Cc1c(NC(=O)C(F)(F)F)sc2c3c(=O)c4ccccc4c(=O)c=3oc3ccccc3c12,inactive

row,Compound,IC50
1,Cc1sc(NC(=O)c2ccco2)c(C(N)=O)c1C,inactive
2,Cc1sc(NC(=O)C2CCCO2)c(C(N)=O)c1C (configuration not stated),> 100 µM (inactive)
3,O=C1C=CC2=C3c4cc(O)c(O)cc4CC3(O)COC2=C1O (configuration not stated),inactive
4,O=C(N/N=C/c1ccc(/C=N/NC(=O)c2ccc(O)c(O)c2)cc1)c1ccc(O)c(O)c1,2.1 µM
5,Oc1cc(O)c2c(c1)OC(c1ccc(O)c(O)c1)C(OC1(c3cc(O)c(O)c(O)c3)Oc3cc(O)cc(O)c3C(O)C1O)C2 (configuration not stated),> 100 µM (inactive)
6,COc1ccccc1NC(=O)c1c(NC(=O)Cc2ccccc2)sc2c1CCCCC2,0.26 µM
7,COc1ccccc1N=C(NOCc1ccc(Cl)cc1Cl)c1nonc1N,inactive
8,CC(C)c1ccc(O)c(=O)cc1,> 100 µM (inactive)
9,O=C1C(Cl)=C(NC(=O)c2ccccc2)C(=O)C(Cl)=C1NC(=O)c1ccccc1,> 100 µM (inactive)
10,Cc1ccccc1-n1c(O)c(C=C2C=CC=N2)c(=O)[nH]c1=S,8 µM
11,COC(=O)c1c(N)sc(C(=O)Nc2ccc(OC)cc2)c1C,inactive
12,CC(C)=CCc1ccc(O)c(=O)cc1C(C)C,100 µM
13,Cc1ccc(S(=O)(=O)/N=C2\C=C(Sc3ncn[nH]3)C(=O)c3ccccc32)cc1,inactive
14,O=C1NC(=S)N(c2ccc(Cl)cc2)C(=O)/C1=C/c1ccco1,inactive
15,O=C1C=CC(=O)C(c2cc(Cl)ccc2Cl)=C1,9.2 µM
16,O=C1c2ccccc2C(=O)c2c(O)c(O)cc(O)c21,inactive
17,Cc1cc(C)c2c(=O)[nH]c(SCC(=O)c3ccc(O)c(O)c3)nc2n1,18 µM
18,CCCc1cc(=O)oc2c3c(c4c(c12)OC(C)(C)C=C4)O[C@H](C)[C@@H](C)[C@H]3OC,inactive
19,O=C1NC(=S)N(c2ccccc2F)C(=O)/C1=C/c1ccc(I)o1,7.3 µM
20,O=C1NC(=S)N(c2ccc(Cl)cc2)C(=O)/C1=C/c1ccc(Br)o1,1.7 µM
21,CCOC(=O)Oc1c(OC)cc(C(=O)O[C@@H]2C[C@@H]3CN4CCc5c([nH]c6cc(OC)ccc56)[C@H]4C[C@@H]3[C@H](C(=O)OC)[C@H]2OC)cc1OC,> 100 µM (inactive)
22,COc1ccc2c(c1)N(C(=O)CN1C(=O)c3ccccc3C1=O)C(C)(C)c1ssc(=S)c1-2,inactive
23,Cc1cc(O)c2c(c1O)C(=O)C13C(=C2O)C(=O)C2C(O)C1C1C(O)C3C(=O)C3=C(O)c4c(O)cc(C)c(O)c4C(=O)C321 (configuration not stated),inactive
24,CN1CC(O)C2=CC(=O)C(=O)C=C21 (configuration not stated),> 100 µM (inactive)
25,C=Cc1c(C)c2cc3[nH]c(cc4nc(cc5nc(cc1[nH]2)C(C)=C5CCC(=O)O)C(CCC(=O)O)=C4C)c(C)c3C=C,inactive

row,Compound,IC50
1,COc1ccc(NC(=O)c2c(N)sc(-c3ccccc3)c2C)cc1,2 µM
2,CC(=O)C1=C(O)[C@@]2(O)C(=O)c3c(c(C)c4ccc(C)c(O)c4c3O)C[C@H]2[C@@H](N)C1=O,9 µM
3,Oc1ccc(/C=N/Nc2nncc(-c3ccccc3)n2)c(O)c1O,7 µM
4,Cc1sc(NC(=O)C2CC3CCC2C3)c(C(N)=O)c1C (configuration not stated),inactive
5,Cc1cc(C(=O)O)ccc1-n1c(C)ccc1C,> 100 µM (inactive)
6,O=C(Nc1ccc(N2CCN(C(=O)c3ccccc3)CC2)cc1)c1ccc(-c2ccccc2)cc1,3.8 µM
7,C[C@]12CC[C@H]3[C@@H](CCC4=CC(=O)CC[C@@]43C)[C@@H]1CC[C@@H]2C(=O)COS(=O)(=O)c1ccc(Br)cc1,inactive
8,CCOc1cccc(N2C(=O)/C(=C/c3cn(CC(=O)OC)c4ccccc34)C(=O)NC2=S)c1,6.2 µM
9,O=C(O)/C=C/c1c2ccc(=O)c(O)c-2oc2c(O)c(O)ccc12,2 µM
10,CN(C)CS/C(N)=N/C(O)C(Cl)(Cl)Cl (configuration not stated),inactive
11,COc1cc(-c2[o+]c3cc(O)cc(O)c3cc2O)cc(O)c1O,inactive
12,COc1cc(/C=N\c2sc3c(c2C(=O)NCc2ccccc2)CCCC3)cc(Cl)c1O,0.95 µM
13,Cc1ccc(C2COc3cc(O)c(O)cc3C2)cc1 (configuration not stated),inactive
14,C=C/C(C)=C/C[C@]1(C)[C@H](C)CC[C@@]23C(=C[C@H](OC(=O)c4ccc(O)c(OC)c4)C[C@@H]12)[C@@H](OC(C)=O)O[C@H]3OC(C)=O,inactive
15,O=C1C=CC(=O)C(c2cccc(Cl)c2)=C1,8.8 µM
16,CC(C)OC(=O)c1cc(O)c(O)c(O)c1,> 100 µM (inactive)
17,C=CC1=C(C)C2=NC1=CC1=NC(=CC3=C(C)C4=C(O)C(C(=O)OC)C(=C5NC(=C2)C(C)C5CCC(=O)OC/C=C(\C)CCCC(C)CCCC(C)CCCC(C)C)C4=N3)C(CC)=C1C (configuration not stated),> 100 µM (inactive)
18,Cc1ccc(-n2c(/C=C/c3ccc(O)c(O)c3)nc3ccccc3c2=O)cc1,5 µM
19,NC(=O)c1c(NC(=O)COc2ccccc2)sc2c1CCCCC2,2 µM
20,O=C(O)CCc1c2ccc(=O)c(O)c-2oc2c(O)c(O)ccc12,1.5 µM
21,CC1C2C=CC1C(c1c3ccc(=O)c(O)c-3oc3c(O)c(O)ccc13)C2C(=O)O (configuration not stated),1.3 µM
22,O=C1/C(=C\c2ccc(O)c(O)c2)SC(=S)N1c1cccc(Cl)c1,2.9 µM
